According to patent US11850237B2, “Compounds and methods for treating influenza” (priority 2009, dated 2023):
≈ marks a conversion by molar mass, not a printed value. Where two headings read alike, the source gives them in different places.

How the values were obtained:
H1N1 A/PR/8/34 (PR8) = assay: microbe, parasite or virus in culture; type: cell-based, influenza A virus; conditions: for EC50 / EC90: Influenza A virus; for EC90: read-out: Virus Yield EC90; for antiviral activity against PR8, overall rating: PR8 influenza A virus, Table 1
MDCK cells = assay: Toxicity / cell viability by MTT in uninfected MDCK cells; type: cell-based, canine; conditions: MDCK cells, MTT
Procedure: (§1) Cell culture, treatment and transfection-Madin-Darby canine kidney (MDCK) cells, and human A549 alveolar type II-like epithelial, Jurkat Tlymphoblastoid and U397 monocytic leukemia cells were grown at 37° C. in a 5% CO2 atmosphere in RPMI 1640 (Invitrogen), supplemented with 10% fetal calf serum (FCS), 2 mM glutamine and antibiotics. Test compounds were added immediately after 1-hour adsorption period, and kept in the culture medium for the entire time of the experiment, unless differently specified. […] Cell viability was determined by the 3-(4,5-dimethylthiazol-2-yl)-2,5-diphenyltetrazolium bromide (MTT) to MTT formazan conversion assay (Sigma-Aldrich) as described previously. Microscopical examination of mock-infected or virus-infected cells was performed using a Leica DM-IL microscope and images were captured on a Leica DC 300 camera using Leica Image-Manager500 software.

[1] = as above; type: cell-based, canine; conditions: dog, uninfected MDCK cells; uninfected cells
Procedure: as §1

[2] = tested on: H1N1 A/PR/8/34 (PR8) virus; assay: microbe, parasite or virus in culture; type: cell-based, influenza A virus; conditions: oseltamivir alone at test concentrations up to 1
[3] = tested on: H1N1 A/PR/8/34 (PR8) virus; assay: microbe, parasite or virus in culture; type: cell-based, influenza A virus; conditions: for PR8 Yield: Nitazoxanide 0 μg/ml
[4] = target: viral hemagglutinin (HA0) (Influenza A virus, UniProt P03452); type: cell-based
[5] = PR8, MDCK cells, read-out: Virus Yield EC50
[6] = MDCK, 24 h, read-out: EC50, inhibition of virus replication

Sequence of viral hemagglutinin (HA0) (P03452 18-565 limits assumed): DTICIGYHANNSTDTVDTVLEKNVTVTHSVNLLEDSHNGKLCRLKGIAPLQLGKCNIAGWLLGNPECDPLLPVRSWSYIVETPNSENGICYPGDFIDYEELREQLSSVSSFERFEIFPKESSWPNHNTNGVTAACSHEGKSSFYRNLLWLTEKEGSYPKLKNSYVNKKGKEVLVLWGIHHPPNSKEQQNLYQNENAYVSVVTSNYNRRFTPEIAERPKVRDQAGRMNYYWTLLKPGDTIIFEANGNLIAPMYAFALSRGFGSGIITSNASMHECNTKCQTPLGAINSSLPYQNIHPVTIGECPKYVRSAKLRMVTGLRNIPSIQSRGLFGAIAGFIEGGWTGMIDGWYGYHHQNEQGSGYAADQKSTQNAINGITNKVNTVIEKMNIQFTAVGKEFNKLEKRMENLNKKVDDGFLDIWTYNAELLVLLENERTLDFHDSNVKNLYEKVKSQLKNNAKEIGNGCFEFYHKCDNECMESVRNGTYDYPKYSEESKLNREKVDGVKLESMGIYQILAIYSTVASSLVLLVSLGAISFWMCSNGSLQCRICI

CC(=O)Oc1ccc(C(=O)Nc2nc(S(C)(=O)=O)cs2)cc1 [Compound 34]
EC50 (H1N1 A/PR/8/34 (PR8); [5]): > 50 µg/mL
EC90 (H1N1 A/PR/8/34 (PR8); PR8, MDCK cells): > 50 µg/mL
Toxicity LD50 (MTT) (MDCK cells): >50 µg/mL

CC(C)S(=O)(=O)c1csc(NC(=O)c2ccccc2O)n1 [Compound 37]
EC50 (H1N1 A/PR/8/34 (PR8); [5]): 0.6 µg/mL (≈ 1.84 µM)
EC90 (H1N1 A/PR/8/34 (PR8); PR8, MDCK cells): 15 µg/mL (≈ 46 µM)
antiviral activity against PR8, overall rating (H1N1 A/PR/8/34 (PR8)): potent and selective
Toxicity LD50 (MTT) (MDCK cells): >50 µg/mL

CSc1csc(NC(=O)c2ccc(OC(C)=O)cc2)n1 [Compound 33]
EC50 (H1N1 A/PR/8/34 (PR8); [5]): > 50 µg/mL
EC90 (H1N1 A/PR/8/34 (PR8); PR8, MDCK cells): > 50 µg/mL
Toxicity LD50 (MTT) (MDCK cells): >50 µg/mL

O=C(Nc1nc(S(=O)(=O)C2CCCCC2)cs1)c1ccccc1O [Compound 39]
EC50 (H1N1 A/PR/8/34 (PR8); [5]): 10 µg/mL (≈ 27.3 µM)
EC90 (H1N1 A/PR/8/34 (PR8); PR8, MDCK cells): 30 µg/mL (≈ 81.9 µM)
Toxicity LD50 (MTT) (MDCK cells): >50 µg/mL

CC(=O)Oc1ccccc1C(=O)Nc1nc([S+](C)[O-])cs1 (centres unmarked) [Compound 29]
EC50 (H1N1 A/PR/8/34 (PR8); [5]): 10 µg/mL (≈ 30.8 µM)
EC90 (H1N1 A/PR/8/34 (PR8); PR8, MDCK cells): > 50 µg/mL
Toxicity LD50 (MTT) (MDCK cells): >50 µg/mL

CS(=O)(=O)c1csc(NC(=O)c2ccc(O)cc2)n1 [Compound 35]
EC50 (H1N1 A/PR/8/34 (PR8); [5]): > 50 µg/mL
EC90 (H1N1 A/PR/8/34 (PR8); PR8, MDCK cells): > 50 µg/mL
Toxicity LD50 (MTT) (MDCK cells): >50 µg/mL

CC(=O)Oc1ccccc1C(=O)Nc1nc(S(=O)(=O)C2CCCCC2)cs1 [Compound 38]
EC50 (H1N1 A/PR/8/34 (PR8); [5]): 25 µg/mL (≈ 61.2 µM)
EC90 (H1N1 A/PR/8/34 (PR8); PR8, MDCK cells): > 50 µg/mL
Toxicity LD50 (MTT) (MDCK cells): >50 µg/mL

CC(C)COC(=O)Oc1ccccc1C(=O)Nc1ncc([N+](=O)[O-])s1 [Compound 14]
EC50 (H1N1 A/PR/8/34 (PR8); [5]): 1 µg/mL (≈ 2.74 µM)
EC90 (H1N1 A/PR/8/34 (PR8); PR8, MDCK cells): 8 µg/mL (≈ 21.9 µM)
Toxicity LD50 (MTT) (MDCK cells): 20 µg/mL

CS(=O)(=O)c1csc(NC(=O)c2cccc(O)c2)n1 [Compound 32]
EC50 (H1N1 A/PR/8/34 (PR8); [5]): > 50 µg/mL
EC90 (H1N1 A/PR/8/34 (PR8); PR8, MDCK cells): > 50 µg/mL
Toxicity LD50 (MTT) (MDCK cells): >50 µg/mL

CS(=O)(=O)c1cnc(NC(=O)c2cccc(O)c2)s1 [Compound 66]
EC50 (H1N1 A/PR/8/34 (PR8); [5]): > 50 µg/mL
EC90 (H1N1 A/PR/8/34 (PR8); PR8, MDCK cells): > 50 µg/mL
Toxicity LD50 (MTT) (MDCK cells): >50 µg/mL

CC(=O)Oc1ccccc1C(=O)Nc1nc(S(C)(=O)=O)cs1 [Compound 27]
EC50 (H1N1 A/PR/8/34 (PR8); [6]): 0.1 µg/mL (≈ 0.294 µM)
EC50 (H1N1 A/PR/8/34 (PR8); [5]): 0.1 µg/mL (≈ 0.294 µM)
EC90 (H1N1 A/PR/8/34 (PR8); PR8, MDCK cells): 0.8 µg/mL (≈ 2.35 µM)
potency relative to NTZ and TIZ (H1N1 A/PR/8/34 (PR8); PR8, MDCK cells): 10 times
antiviral activity against PR8, overall rating (H1N1 A/PR/8/34 (PR8)): potent and selective
CC50 [1]: > 50 µg/mL
Toxicity LD50 (MTT) (MDCK cells): >50 µg/mL

CS(=O)(=O)c1cnc(NC(=O)c2ccccc2O)s1 [Compound 53]
EC50 (H1N1 A/PR/8/34 (PR8); [5]): 10 µg/mL (≈ 33.5 µM)
EC90 (H1N1 A/PR/8/34 (PR8); PR8, MDCK cells): > 50 µg/mL
Toxicity LD50 (MTT) (MDCK cells): >50 µg/mL

CS(=O)(=O)c1cnc(NC(=O)c2ccc(O)cc2)s1 [Compound 64]
EC50 (H1N1 A/PR/8/34 (PR8); [5]): > 50 µg/mL
EC90 (H1N1 A/PR/8/34 (PR8); PR8, MDCK cells): > 50 µg/mL
Toxicity LD50 (MTT) (MDCK cells): >50 µg/mL

C[S+]([O-])c1csc(NC(=O)c2ccccc2O)n1 (centres unmarked) [Compound 30]
EC50 (H1N1 A/PR/8/34 (PR8); [5]): 10 µg/mL (≈ 35.4 µM)
EC90 (H1N1 A/PR/8/34 (PR8); PR8, MDCK cells): > 50 µg/mL
Toxicity LD50 (MTT) (MDCK cells): >50 µg/mL

CCOC(=O)C1=C[C@@H](OC(CC)CC)[C@H](NC(C)=O)[C@@H](N)C1 [oseltamivir, reference compound]
reduction (inhibition) of virus yield [2]: did not observe reduction

CC(=O)Oc1ccccc1C(=O)Nc1ncc(S(C)(=O)=O)s1 [Compound 52]
EC50 (H1N1 A/PR/8/34 (PR8); [5]): 30 µg/mL (≈ 88.1 µM)
EC90 (H1N1 A/PR/8/34 (PR8); PR8, MDCK cells): > 50 µg/mL
Toxicity LD50 (MTT) (MDCK cells): >50 µg/mL

CC(=O)Oc1ccccc1C(=O)Nc1ncc(S(=O)(=O)c2ccc([N+](=O)[O-])cc2)s1 [Compound 51]
EC50 (H1N1 A/PR/8/34 (PR8); [5]): 3.5 µg/mL (≈ 7.82 µM)
EC90 (H1N1 A/PR/8/34 (PR8); PR8, MDCK cells): 9 µg/mL (≈ 20.1 µM)
Toxicity LD50 (MTT) (MDCK cells): 30 µg/mL

CS(=O)(=O)c1csc(NC(=O)c2ccccc2O)n1 [Compound 28]
EC50 (H1N1 A/PR/8/34 (PR8); [6]): 0.1 µg/mL (≈ 0.335 µM)
EC50 (H1N1 A/PR/8/34 (PR8); [5]): 0.1 µg/mL (≈ 0.335 µM)
EC90 (H1N1 A/PR/8/34 (PR8); PR8, MDCK cells): 0.7 µg/mL (≈ 2.35 µM)
potency relative to NTZ and TIZ (H1N1 A/PR/8/34 (PR8); PR8, MDCK cells): 10 times
antiviral activity against PR8, overall rating (H1N1 A/PR/8/34 (PR8)): potent and selective
CC50 [1]: > 50 µg/mL
Toxicity LD50 (MTT) (MDCK cells): >50 µg/mL

CC(=O)Oc1ccccc1C(=O)Nc1nc(S(=O)(=O)C(C)C)cs1 [Compound 36]
EC50 (H1N1 A/PR/8/34 (PR8); [5]): 1 µg/mL (≈ 2.71 µM)
EC90 (H1N1 A/PR/8/34 (PR8); PR8, MDCK cells): 8 µg/mL (≈ 21.7 µM)
antiviral activity against PR8, overall rating (H1N1 A/PR/8/34 (PR8)): potent and selective
Toxicity LD50 (MTT) (MDCK cells): >50 µg/mL

CCOC(=O)Oc1ccccc1C(=O)Nc1ncc([N+](=O)[O-])s1 [Compound 15]
EC50 (H1N1 A/PR/8/34 (PR8); [5]): 1 µg/mL (≈ 2.96 µM)
EC90 (H1N1 A/PR/8/34 (PR8); PR8, MDCK cells): 7 µg/mL (≈ 20.8 µM)
Toxicity LD50 (MTT) (MDCK cells): 30 µg/mL

CC(=O)Oc1cccc(C(=O)Nc2ncc(S(C)(=O)=O)s2)c1 [Compound 65]
EC50 (H1N1 A/PR/8/34 (PR8); [5]): > 50 µg/mL
EC90 (H1N1 A/PR/8/34 (PR8); PR8, MDCK cells): > 50 µg/mL
Toxicity LD50 (MTT) (MDCK cells): >50 µg/mL

CCCCS(=O)(=O)c1cnc(NC(=O)c2ccccc2OC(C)=O)s1 [Compound 59]
EC50 (H1N1 A/PR/8/34 (PR8); [5]): 5 µg/mL (≈ 13.1 µM)
EC90 (H1N1 A/PR/8/34 (PR8); PR8, MDCK cells): 30 µg/mL (≈ 78.4 µM)
Toxicity LD50 (MTT) (MDCK cells): >50 µg/mL

CC(=O)N[C@H]1[C@H]([C@H](O)[C@H](O)CO)OC(C(=O)O)=C[C@@H]1N=C(N)N [Zanamivir]
EC50 ([3]; Influenza A virus, zanamivir alone, PR8, MDCK cells, read-out: EC50): 1000 nM
PR8 Yield ([3]; Zanamivir 0.01 μM): 48 HAU/ml
PR8 Yield ([3]; Zanamivir 0.1 μM): 48 HAU/ml
PR8 Yield ([3]; Zanamivir 1 μM): 24 HAU/ml
effect on viral replication ([3]; zanamivir alone at 0.1 μM): had no effect
reduction (inhibition) of virus yield ([3]; zanamivir alone at the highest test concentration of 1): 50%

O=C(Oc1ccccc1C(=O)Nc1ncc([N+](=O)[O-])s1)c1ccccc1 [Compound 17]
EC50 (H1N1 A/PR/8/34 (PR8); [5]): 3 µg/mL (≈ 8.12 µM)
EC90 (H1N1 A/PR/8/34 (PR8); PR8, MDCK cells): 9 µg/mL (≈ 24.4 µM)
Toxicity LD50 (MTT) (MDCK cells): >50 µg/mL

CC(=O)Oc1cccc(C(=O)Nc2nc(S(C)(=O)=O)cs2)c1 [Compound 31]
EC50 (H1N1 A/PR/8/34 (PR8); [5]): > 50 µg/mL
EC90 (H1N1 A/PR/8/34 (PR8); PR8, MDCK cells): > 50 µg/mL
Toxicity LD50 (MTT) (MDCK cells): >50 µg/mL

CC(=O)Oc1ccc(C(=O)Nc2ncc(S(C)(=O)=O)s2)cc1 [Compound 63]
EC50 (H1N1 A/PR/8/34 (PR8); [5]): 10 µg/mL (≈ 29.4 µM)
EC90 (H1N1 A/PR/8/34 (PR8); PR8, MDCK cells): > 50 µg/mL
Toxicity LD50 (MTT) (MDCK cells): >50 µg/mL

CS(=O)(=O)c1cnc(NC(=O)c2ccccc2[O-])s1.[Na+] [Compound 54]
EC50 (H1N1 A/PR/8/34 (PR8); [5]): 10 µg/mL
EC90 (H1N1 A/PR/8/34 (PR8); PR8, MDCK cells): > 50 µg/mL
Toxicity LD50 (MTT) (MDCK cells): >50 µg/mL

tunicamycin [TM, reference compound]
HA0 glycosylation (glucosamine, mannose incorporation) [4]: completely prevented HA0 glycosylation
intracellular HA0 levels / accumulation [4]: caused a decrease in HA0 accumulation

CCC(=O)Oc1ccccc1C(=O)Nc1ncc([N+](=O)[O-])s1 [Compound 16]
EC50 (H1N1 A/PR/8/34 (PR8); [5]): 1 µg/mL (≈ 3.11 µM)
EC90 (H1N1 A/PR/8/34 (PR8); PR8, MDCK cells): 8 µg/mL (≈ 24.9 µM)
Toxicity LD50 (MTT) (MDCK cells): 20 µg/mL

O=C(Nc1ncc([N+](=O)[O-])s1)c1ccccc1[O-].[Na+] [Compound 3, tizoxanide sodium salt]
EC50 (H1N1 A/PR/8/34 (PR8); [5]): 0.4 µg/mL
EC90 (H1N1 A/PR/8/34 (PR8); PR8, MDCK cells): 2.5 µg/mL
antiviral activity against PR8, overall rating (H1N1 A/PR/8/34 (PR8)): potent and selective
Toxicity LD50 (MTT) (MDCK cells): >50 µg/mL
